In US20060160847A1, “2,4-Dihalogen-6-(c2-c3alkyl)-phenyl substituted tetramic acid derivatives” (priority 2003, published 2006):

What was measured:
Assay type in all cases: in vivo
[1] = test system: cotton aphids (Aphis gossypii); experiment: Aphis gossypii test; conditions: active compound concentration 200 ppm, infested cotton leaves dipped
Procedure: (§1) Aphis Gossypii Test [table] To produce a suitable preparation of active compound, 1 part by weight of active compound is mixed with the stated amounts of solvent and emulsifier, and the concentrate is diluted with emulsifier-containing water to the desired concentration. Cotton leaves (Gossypium hirsutuni) which are heavily infested by cotton aphids (Aphis gossypii) are treated by being dipped into the preparation of active compound of the desired concentration. After the desired period of time, the kill in % is determined. 100% means that all aphids have been killed; 0% means that none of the aphids have been killed.

[2] = test system: green peach aphid (Myzus persicae); experiment: Myzus test; conditions: infested cabbage leaves dipped
Procedure: as §1, with “Myzus” for “Aphis Gossypii”, “Cabbage” for “Cotton”, “(Brassica oleracea)” for “(Gossypium hirsutuni)”, “the green peach aphid (Myzus persicae)” for “cotton aphids (Aphis gossypii)”

Test plants [3] = experiment: Post-emergence test; conditions: greenhouse
Procedure: To produce a suitable preparation of active compound, 1 part by weight of active compound is mixed with the stated amount of solvent, the stated amount of emulsifier is added and the concentrate is diluted with water to the desired concentration.
Test plants of a height of 5-15 cm are sprayed with the preparation of active compounds such that the particular amounts of active compound desired are applied per unit area. The concentration of the spray liquor is chosen such that the particular amounts of active compound desired are applied in 1000 l of water/ha.
After three weeks, the degree of damage to the plants is rated in % damage in comparison to the development of the untreated control.
0%=no effect (like untreated control)

Test plants [4] = experiment: Pre-emergence test; conditions: greenhouse
Procedure: Pre-Emergence Test [[[…]]] To produce a suitable preparation of active compound, 1 part by weight of active compound is mixed with the stated amount of solvent, the stated amount of emulsifier is added and the concentrate is diluted with water to the desired concentration. Seeds of the test plants are sown in normal soil. After about 24 hours, the soil is sprayed with the preparation of active compound such that the particular amounts of active compound desired are applied per unit area. The concentration of the spray liquor is chosen such that the particular amounts of active compound desired are applied in 1000 l of water/ha. After three weeks, the degree of damage to the plants is rated in % damage in comparison to the development of the untreated control. The figures denote: 0%=no effect (like untreated control) 100%=total destruction

[5] = test system: white fly (Bemisia tabaci) eggs, larvae and puparia; experiment: Bemisia test; conditions: active compound concentration 40 ppm, infested cotton plants sprayed
Procedure: Bemisia Test [table] To produce a suitable preparation of active compound, 1 part by weight of active compound is mixed with the stated amounts of solvent and emulsifier, and the concentrate is diluted with water to the desired concentration. Cotton plants (Gossypium hirsutum) which are infested by white fly (Bemisia tabaci) eggs, larvae and puparia are sprayed with the preparation of active compound of the desired concentration. After the desired period of time, the kill in % is determined. 100% means that all animals have been killed; 0% means that none of the animals have been killed.

[6] = test system: green rice leaf hopper (Nephotettix cincticeps); experiment: Nephotettix test; conditions: rice seedlings dipped
Procedure: (§2) To produce a suitable preparation of active compound, 1 part by weight of active compound is mixed with the stated amounts of solvent and emulsifier, and the concentrate is diluted with emulsifier-containing water to the desired concentration.
Rice seedlings (Oryza satina) are treated by being dipped into the preparation of active compound of the desired concentration and are populated wraith the green rice leaf hopper (Nephotettix cincticeps) while the leafs are still moist.
After the desired period of time, the kill in % is determined. 100% means that all leaf hoppers have been killed; 0% means that none of the leaf hoppers have been killed.

[7] = test system: larvae of the mustard beetle (Phaedon cochleariae); experiment: Phaedon larvae test; conditions: 100 ppm active compound, Phaedon cochleariae larvae on dipped cabbage leaves
Procedure: Phaedon Larvae Test [[[…]]] To produce a suitable preparation of active compound, 1 part by weight of active compound is mixed with the stated amounts of solvent and emulsifier, and the concentrate is diluted with emulsifier-containing water to the desired concentration. Cabbage leaves (Brassica oleracea) are treated by being dipped into the preparation of active compound of the desired concentration and are populated with larvae of the mustard beetle (Phaedon cochleariae) while the leaves are still moist. After the desired period of time, the kill in % is determined. 100% means that all beetle larvae have been killed; 0% means that none of the beetle larvae have been killed.

[8] = test system: greenhouse red spider mite (Tetranychus urticae); experiment: Tetranychus test (OP-resistant/dip treatment); conditions: 1.6 ppm active compound, Tetranychus urticae on dipped bean plants
Procedure: Tetranychus Test (OP-Resistant/Dip Treatment)
as §2
Bean plants (Phaseolus vulgaris) which are heavily infested by all stages of the greenhouse red spider mite (Tetranychus urticae) are dipped into a preparation of active compound of the desired concentration.
After the desired period of time, the effect in % is determined. 100% means that all spider mites have been killed; 0% means that none of the spider mites have been killed.

[9] = active compound concentration 8 ppm

## CCc1cc(Cl)cc(Cl)c1C1=C(O)C2(CCC(C)CC2)NC1=O (single isomer, unassigned) [Ex. I-a-2]
[1]
  Kill rate in % after 6^d: 90%
[2]; [9]
  Kill rate in % after 6^d: 95%
Test plants [3]; 125 g of a.i./ha
  % damage, Bromus: 90%
  % damage, Echinochloa: 100%
  % damage, Lolium: 100%
  % damage, Sorghum: 100%
Test plants [3]; 125 g of a.i./ha, cotton
  % damage, cotton: 0%

## CCc1cc(Cl)cc(Cl)c1C1=C(O)C2(CCC(OC)CC2)NC1=O (single isomer, unassigned) [Ex. I-a-3]
[2]; [9]
  Kill rate in % after 6^d: 85%
Test plants [3]; 250 g of a.i./ha
  % damage, Alopecurus: 100%
  % damage, Avena fatua: 100%
  % damage, Sinapis: 80%
Test plants [4]; 30 g of a.i./ha
  % damage, Alopecurus: 100%
  % damage, Avena fatua: 70%
  % damage, Digitaria: 100%
  % damage, Lolium: 100%
Test plants [4]; 30 g of a.i./ha, Setaria
  % damage, Setaria: 100%
Test plants [4]; 30 g of a.i./ha, cotton
  % damage, cotton: 0%
Test plants [4]; 30 g of a.i./ha, sugar beet
  % damage, sugar beet: 0%

## CCc1cc(Br)cc(Cl)c1C1=C(O)C2(CCC(C)CC2)NC1=O (single isomer, unassigned) [Ex. I-a-6]
Test plants [3]; 60 g of a.i./ha
  % damage, Abutilon: 70%
  % damage, Echinochloa: 95%
  % damage, Lolium: 90%
  % damage, Setaria: 100%
  % damage, Sorghum: 90%
Test plants [4]; 60 g of a.i./ha
  % damage, Avena fatua: 90%
  % damage, Echinochloa: 100%
  % damage, Lolium: 95%
  % damage, soybean: 0%
Test plants [4]; 60 g of a.i./ha, Veronica
  % damage, Veronica: 100%
Test plants [4]; 60 g of a.i./ha, wheat
  % damage, wheat: 0%

## CCc1cc(Br)cc(Cl)c1C1=C(O)C2(CCC(OC)CC2)NC1=O (single isomer, unassigned) [Ex. I-a-7]
[2]; active compound concentration 1.6 ppm
  Kill rate in % after 6^d: 65%
Test plants [3]; 250 g of a.i./ha
  % damage, Abutilon: 80%
  % damage, sugar beet: 0%
Test plants [3]; 250 g of a.i./ha, Amaranthus
  % damage, Amaranthus: 70%
Test plants [3]; 250 g of a.i./ha, Cyperus
  % damage, Cyperus: 80%
Test plants [4]; 125 g of a.i./ha
  % damage, Avena fatua: 95%
  % damage, Bromus: 100%
  % damage, Echinochloa: 100%
Test plants [4]; 125 g of a.i./ha, Matricaria
  % damage, Matricaria: 80%

## CCc1cc(Cl)cc(Br)c1C1=C(O)C2(CCC(OC)CC2)NC1=O (single isomer, unassigned) [Ex. I-a-10]
Test plants [3]; 30 g of a.i./ha
  % damage, Alopecurus: 95%
  % damage, Avena fatua: 95%
  % damage, Bromus: 90%
  % damage, Lolium: 95%
  % damage, Setaria: 100%
  % damage, sugar beet: 0%
Test plants [3]; 30 g of a.i./ha, Digitaria
  % damage, Digitaria: 100%
Test plants [4]; 125 g of a.i./ha
  % damage, Alopecurus: 100%
  % damage, Avena fatua: 90%
  % damage, Bromus: 90%
  % damage, Digitaria: 100%
  % damage, soybean: 0%

## CCc1cc(Br)cc(Cl)c1C1=C(OC(=O)C(C)C)C2(CCC(C)CC2)NC1=O (single isomer, unassigned) [Ex. I-b-2]
[5]
  Kill rate in % after 10^d: 100%
Test plants [4]; 30 g of a.i./ha
  % damage, Digitaria: 70%
  % damage, Echinochloa: 70%
  % damage, Lolium: 95%
  % damage, soybean: 0%
Test plants [4]; 30 g of a.i./ha, corn
  % damage, corn: 0%

## CCOCC(=O)OC1=C(c2c(Cl)cc(Br)cc2CC)C(=O)NC12CCC(C)CC2 (single isomer, unassigned) [Ex. I-b-3]
[6]; active compound concentration 0.1 ppm
  Kill rate in % after 6^d: 40%
[7]
  Kill rate in % after 7d: 100%

## CCc1cc(Cl)cc(Cl)c1C1=C(O)C2(CCOCC2)NC1=O [Ex. I-a-5]
Test plants [3]; 250 g of a.i./ha
  % damage, Alopecurus: 95%
  % damage, Avena fatua: 100%
  % damage, Setaria: 100%
  % damage, Sinapis: 70%

## CCc1cc(Cl)cc(Br)c1C1=C(O)C(C)(C)NC1=O [Ex. I-a-11]
[6]; active compound concentration 10 ppm
  Kill rate in % after 6^d: 100%
[8]
  Kill rate in % after 14d: 80%
Test plants [3]; 250 g of a.i./ha
  % damage, Alopecurus: 100%
  % damage, Setaria: 100%
  % damage, sugar beet: 0%
